The values below come from patent publication US20120128646A1, “METHODS AND COMPOSITIONS FOR THE TREATMENT OF AUTOIMMUNE DISEASE” (priority 2009, published 2012).

Entries after “also recorded” stand apart in the source; their conditions may differ. Where no end group is shown, it is not given here.

The subject of one assay is BDC-2.5 T cell hybridoma. The assay can be described thus: CD69 upregulation on T cell hybridoma co-cultured with insect cells infected with linked peptide I-A^g7 viruses. The assay is classed as cell-based, mouse. Particulars: hybridomas 3 × 10^5/mL, 3 hrs co-culture with infected insect cells 1 × 10^5/mL. The protocol:
(§1) FIG. 13F: The p3 glycine of pS3 was mutated to other amino acids. The effect of the mutations on early activation of the three BDC hybridomas was assessed by CD69 induction. The results are shown as the percent of cells expressing CD69 relative to those activated with the unmutated pS3 peptide. […] The sequences of the pS3 and ChgA peptide are also shown, highlighting the amino acids at the p3 position.
(§2) A mutational analysis was performed of 3 L mimotope at positions 2 and 3 followed by their respective ability to stimulate BDC-2.5, BDC-10.1 and BDC-5.10.3 hybridomas with 3 L mimotope substituted peptides. See, Table 3.

Assay [1] relates to BDC-5.10.3 T cell hybridoma. Described as above. To be noted: hybridomas 3 × 10^5/mL, 3 hrs co-culture with infected insect cells 1 × 10^5/mL. The assay is classed as cell-based, mouse. The method, then: as §1, §2
Assay [2] concerns BDC-10.1 T cell hybridoma. The assay is described as above. Format: cell-based, mouse. Particulars: hybridomas 3 × 10^5/mL, 3 hrs co-culture with infected insect cells 1 × 10^5/mL. The method, then:
as §1, §2

Another assay has as its system T cell clone BDC-2.5. As to the kind of experiment: IFNγ production by T cell clone in antigen assay (ELISA). To be noted: peptide or preparation as antigen. The assay is classed as cell-based, NOD mouse. The source says:
The T cell clones are maintained in culture by periodic re-stimulation with irradiated NOD splenocytes and islet cells or β-membrane. To assay for antigen, resting responder T cells (i.e., for example, the cells at the end of the two-week restimulation period) are co-cultured for 24 hr with elicited peritoneal macrophages (PEC) as APC and either a test sample or control antigen. Control antigen will be in the form of islet cells or the whole-cell membrane fraction (i.e., for example, a β-membrane fraction). As described above, unlysed β-membrane is stored in aliquots at −80° C. for this purpose. Negative controls include responder cells alone and responders plus APC.
At the end of the culture period, supernatants are collected from the cultures and IFNγ production is measured by ELISA. Wells positive for IFNγ are indicative of T cells responding to antigen; the amount of cytokine produced is calculated from a standard curve and is directly proportional to the amount of antigen present.
Antigenicity of islet cells, cellular and biochemical fractions, peptides, or insect cells expressing IA^g7-peptide constructs, was assessed through responses of T cell clones or hybridomas made by fusing T cell clones to the TCR^− version of T cell lymphoma, BW5147. White et al., “Two better cell lines for making hybridomas expressing specific T cell receptors” J Immunol 143:1822-1825 (1989). T cell clone cultures typically contained 2×10^4 responder T cells, 2.5×10^4 NOD peritoneal exudate cells (PEC) as APC, and antigen (SEC/IEX fractions, peptides, islet cells); all assays were performed with β-Mem as a positive control. IFNγ was measured by ELISA of culture supernatants. For cultures with T cell hybridomas, antigen/MHC activation was assessed by IL-2 production measured by a bioassay using the HT-2 T cell line. Walker et al., “Antigenspecific. I region-restricted interactions in vitro between tumor cell lines and T cell hybridomas” J Immunol 128:2164-2169 (1982). Synthetic peptides were either produced in the Molecular Resource Center at National Jewish Health or obtained from CHI Scientific, Maynard, Mass.
(In general: In an ELISA, binding on a coated surface is turned into a signal by an enzyme label.)

The next assay has as its system soluble IA^g7. As to the kind of experiment: Peptide binding to IA^g7: competition with biotinylated HEL peptide. Further details: species or system NOD mouse. Particulars: competition with biotinylated pHEL 11 μM, pH 5.6, overnight. An excerpt: FIG. 15B: A series of ChgA peptides tested for their ability to compete with a biotinylated HEL peptide for binding to soluble IA^g7. pS3-positive control peptide. IE^k moth cytochrome c-negative control peptide. N=2. Y axis: Percent of IA^g7-bound biotinylated HEL peptide as compared to IE^k. X axis: Log concentration of inhibitor peptide.
In order to confirm the unique binding register of the WE14 peptide, a series of peptides comprising N-terminal extensions and/or C-terminal deletions of WE14 were evaluated for their ability to stimulate the BDC-2.5 T cell clone (FIG. 6a) or to bind to IA^g7. See, FIG. 15A. […] See, FIG. 15B. Further, a pS3 mimotope was used as the positive control peptide and an irrelevant peptide from moth cytochrome c, pMCC, was the negative control peptide. The data were analyzed to determine the stimulatory or binding capacity of the peptides relative to WE14. See, FIG. 15C.
Soluble IA^g7 with covalently attached pHEL was treated with thrombin to cleave the linker attaching the peptide to the IA^g7 β chain. Kozono et al., “Production of soluble MHC class II proteins with covalently bound single peptides” Nature 369:151-154 (1994). Samples (0.5 μg) were incubated with a soluble biotinylated version of pHEL, Biotin-GGGMKRHGLDNYRGYSL (SEQ ID NO: 56) (11 μM), either alone or in the presence of various concentrations of potential competitors peptides, in 15 μL of pH 5.6 buffer overnight at room temperature. The sample was diluted to 100 μL of PBS in a well of a 96-well ELISA plate coated with an anti-IA^g7 monoclonal antibody, OX-6 (BD Pharmaceuticals). The captured IA^g7 was washed several times with PBS and the bound bio-pHEL detected with alkaline phosphatase coupled Extravadin (Sigma) and […].

As to SRLGLWVRME, the “Stimulation BDC-2.5 (upregulation of CD69)” value in the assay on BDC-2.5 T cell hybridoma was “+ (A positive response (+) indicates >40% of the hybridoma population stained above a background staining of 1% for unstimulated or of the same T cell hybridoma)”. Besides, in assay [1], the “Stimulation BDC-5.1.3 (upregulation of CD69)” value is on record as “+ (A positive response (+) indicates >40% of the hybridoma population stained above a background staining of 1% for unstimulated or of the same T cell hybridoma)”. In assay [2], the “Stimulation BDC-10.1 (upregulation of CD69)” value is “+ (A positive response (+) indicates >40% of the hybridoma population stained above a background staining of 1% for unstimulated or of the same T cell hybridoma)”.

In the case of SRLRLWVRME, the “Stimulation BDC-2.5 (upregulation of CD69)” value in the assay with BDC-2.5 T cell hybridoma is “+ (A positive response (+) indicates >40% of the hybridoma population stained above a background staining of 1% for unstimulated or of the same T cell hybridoma)”. Besides, in assay [1], the “Stimulation BDC-5.1.3 (upregulation of CD69)” value is on record as “+ (A positive response (+) indicates >40% of the hybridoma population stained above a background staining of 1% for unstimulated or of the same T cell hybridoma)”. The “Stimulation BDC-10.1 (upregulation of CD69)” value in assay [2] is listed as “+ (A positive response (+) indicates >40% of the hybridoma population stained above a background staining of 1% for unstimulated or of the same T cell hybridoma)”.

“Enz: WE14 after transglutaminase modification (WSRMDQLAKELTAE; also: transglutaminase modification, site not given here)”: in the assay on T cell clone BDC-2.5, the “Stimulation of T cell clone BDC-2.5 (IFNγ response), result in words” value (shortened to “Stimulation … in words”) is “highly antigenic”.

For the substance SRLHLWVRME, the “Stimulation BDC-5.1.3 (upregulation of CD69)” value in assay [1] is “+ (A positive response (+) indicates >40% of the hybridoma population stained above a background staining of 1% for unstimulated or of the same T cell hybridoma)”. Also, in assay [2], the “Stimulation BDC-10.1 (upregulation of CD69)” value was “+ (A positive response (+) indicates >40% of the hybridoma population stained above a background staining of 1% for unstimulated or of the same T cell hybridoma)”.

SRLMLWVRME: in assay [1], the “Stimulation BDC-5.1.3 (upregulation of CD69)” value is given as “+ (A positive response (+) indicates >40% of the hybridoma population stained above a background staining of 1% for unstimulated or of the same T cell hybridoma)”. Besides, the “Stimulation BDC-10.1 (upregulation of CD69)” value in assay [2] is “+ (A positive response (+) indicates >40% of the hybridoma population stained above a background staining of 1% for unstimulated or of the same T cell hybridoma)”.

For SRLTLWVRME, the “Stimulation BDC-2.5 (upregulation of CD69)” value in the assay on BDC-2.5 T cell hybridoma is given as “+ (A positive response (+) indicates >40% of the hybridoma population stained above a background staining of 1% for unstimulated or of the same T cell hybridoma)”. The “Stimulation BDC-5.1.3 (upregulation of CD69)” value in assay [1] is given as “+ (A positive response (+) indicates >40% of the hybridoma population stained above a background staining of 1% for unstimulated or of the same T cell hybridoma)”. Besides, the “Stimulation BDC-10.1 (upregulation of CD69)” value in assay [2] is recorded as “+ (A positive response (+) indicates >40% of the hybridoma population stained above a background staining of 1% for unstimulated or of the same T cell hybridoma)”.

Regarding SRLYLWVRME, in assay [1], the “Stimulation BDC-5.1.3 (upregulation of CD69)” value is given as “+ (A positive response (+) indicates >40% of the hybridoma population stained above a background staining of 1% for unstimulated or of the same T cell hybridoma)”. Besides, the “Stimulation BDC-10.1 (upregulation of CD69)” value in assay [2] was “+ (A positive response (+) indicates >40% of the hybridoma population stained above a background staining of 1% for unstimulated or of the same T cell hybridoma)”.

SRLCLWVRME: in the assay with BDC-2.5 T cell hybridoma, the “Stimulation BDC-2.5 (upregulation of CD69)” value was “+ (A positive response (+) indicates >40% of the hybridoma population stained above a background staining of 1% for unstimulated or of the same T cell hybridoma)”. The “Stimulation BDC-5.1.3 (upregulation of CD69)” value in assay [1] is recorded as “+ (A positive response (+) indicates >40% of the hybridoma population stained above a background staining of 1% for unstimulated or of the same T cell hybridoma)”.

Turning to “WSRMD [WD5, shortest C-terminal truncation of WE14, motif only]”, in the assay on T cell clone BDC-2.5, the “Stimulation … in words” value is “decreasing stimulatory activity; also recorded: lacked any activity at all”.

With SRLSLWVRME, the “Stimulation BDC-2.5 (upregulation of CD69)” value in the assay on BDC-2.5 T cell hybridoma is listed as “+ (A positive response (+) indicates >40% of the hybridoma population stained above a background staining of 1% for unstimulated or of the same T cell hybridoma)”. Also, in assay [1], the “Stimulation BDC-5.1.3 (upregulation of CD69)” value is on record as “+ (A positive response (+) indicates >40% of the hybridoma population stained above a background staining of 1% for unstimulated or of the same T cell hybridoma)”. In assay [2], the “Stimulation BDC-10.1 (upregulation of CD69)” value is given as “+ (A positive response (+) indicates >40% of the hybridoma population stained above a background staining of 1% for unstimulated or of the same T cell hybridoma)”.

Consider SRLPLWVRME, for which the “Stimulation BDC-2.5 (upregulation of CD69)” value in the assay on BDC-2.5 T cell hybridoma is reported as “+ (A positive response (+) indicates >40% of the hybridoma population stained above a background staining of 1% for unstimulated or of the same T cell hybridoma)”. The “Stimulation BDC-5.1.3 (upregulation of CD69)” value in assay [1] is recorded as “+ (A positive response (+) indicates >40% of the hybridoma population stained above a background staining of 1% for unstimulated or of the same T cell hybridoma)”. The “Stimulation BDC-10.1 (upregulation of CD69)” value in assay [2] was “+ (A positive response (+) indicates >40% of the hybridoma population stained above a background staining of 1% for unstimulated or of the same T cell hybridoma)”.

In the case of SRLVLWVRME, in assay [1], the “Stimulation BDC-5.1.3 (upregulation of CD69)” value was “+ (A positive response (+) indicates >40% of the hybridoma population stained above a background staining of 1% for unstimulated or of the same T cell hybridoma)”. For the same substance, in assay [2], the “Stimulation BDC-10.1 (upregulation of CD69)” value is “+ (A positive response (+) indicates >40% of the hybridoma population stained above a background staining of 1% for unstimulated or of the same T cell hybridoma)”.

Take “EDKRWSRMDQLAKELTAE [EE18, WE14 extended by 4 amino acids (EDKR)]”: the “IA^g7 binding, result in words” value in the assay on soluble IA^g7 is on record as “no effect”. The “Stimulation … in words” value in the assay on T cell clone BDC-2.5 is “virtually eliminated”.

For “WA8: sequential C-terminal truncation of WE14 (WSRMDQLA)”, the “Stimulation … in words” value in the assay with T cell clone BDC-2.5 is on record as “decreasing stimulatory activity”.

As for SRFGLWVRME, the “Stimulation BDC-2.5 (upregulation of CD69)” value in the assay with BDC-2.5 T cell hybridoma was “+ (A positive response (+) indicates >40% of the hybridoma population stained above a background staining of 1% for unstimulated or of the same T cell hybridoma)”. Further, the “Stimulation BDC-10.1 (upregulation of CD69)” value in assay [2] was “+ (A positive response (+) indicates >40% of the hybridoma population stained above a background staining of 1% for unstimulated or of the same T cell hybridoma)”.

Take QWEDKRWSRMDQA: in the assay with T cell clone BDC-2.5, the “Stimulation … in words” value is recorded as “unable to stimulate”.

Consider SRLALWVRME, for which the “Stimulation BDC-2.5 (upregulation of CD69)” value with BDC-2.5 T cell hybridoma is “+ (A positive response (+) indicates >40% of the hybridoma population stained above a background staining of 1% for unstimulated or of the same T cell hybridoma)”. In addition, the “Stimulation BDC-5.1.3 (upregulation of CD69)” value in assay [1] was “+ (A positive response (+) indicates >40% of the hybridoma population stained above a background staining of 1% for unstimulated or of the same T cell hybridoma)”. Further, the “Stimulation BDC-10.1 (upregulation of CD69)” value in assay [2] was “+ (A positive response (+) indicates >40% of the hybridoma population stained above a background staining of 1% for unstimulated or of the same T cell hybridoma)”.
